In US20160038490A1, “COMPOSITIONS AND METHODS FOR TREATING DYSPROLIFERATIVE DISEASES” (ANGION BIOMEDICA CORP., priority 2012, published 2016):
Read-outs that look alike come from different tables or passages of the source.

Assays:
SK-BR-3 cells [1] = experiment: ATRA metabolism in breast cancer cells; type: cell-based; settings: 2×10^6 SK-BR-3 cells treated with 100 nM ATRA, no CYP26 inhibitor
Experimental: To directly test whether ATRA induces its own metabolism, we treated 2×10^6 SK-BR-3 cells with 100 nM ATRA and determined the ATRA concentration after 24 hours. Significant metabolism of ATRA was found (FIG. 4), with the ATRA concentration dropping to 6 nM after 24 hrs.

SK-BR-3 cells [2] = experiment: Cell proliferation, Cell Titer Glo, checkerboard design; type: cell-based; settings: for EC50: Homo sapiens
Experimental: The effect of all-trans retinoic acid (ATRA), a CYP26 inhibitor and their combination was studied using two HER2+ RARA+ breast cancer cell lines: AU565 and SK-BR-3. Cells were plated in a 96-well plate and treated with compounds in a “checkerboard” design. After 7 days the cell proliferation was determined using the Cell Titer Glo reagent (Promega).
(§1) This provides a strong rationale for the simultaneous targeting of both signaling pathways in breast cancer patients.

SK-BR-3 cells [3] = experiment: Apoptosis assay (Caspase 3/7 assay); type: cell-based
Text: as §1

[4] = tested on: SK-BR-3 breast cancer cells; experiment: Breast cancer xenograft study; settings: SK-BR-3 xenograft, immuno-compromised mice; CYP26 inhibitor 10 mg/kg po qd×5, Lapatinib 100 mg/kg po qd×5; compared to vehicle
Experimental: Once palpable tumors were established in immuno-compromised mice, animals were randomized to four treatment groups: (1) Vehicle, (2) CYP26 inhibitor (10 mg/kg, po, qd×5), (3) the EGFR/HER2 inhibitor Lapatinib (100 mg/kg, po, qd×5) or (4) the combination of the two (10 mg/kg CYP26 inhibitor and 100 mg/kg Lapatinib).

Row | ATRA concentration after 24 hours (SK-BR-3 cells [1]) [nM] | EC50 (SK-BR-3 cells [2]; 168 h, SK-BR-3, 7 days, ATRA alone, estimated, read-out: EC50, inhibition of cell growth) [nM] | EC50 (SK-BR-3 cells [2]; SK-BR-3, lapatinib alone, read-out: EC50, inhibition of cell growth in the absence of ATRA) [nM] | Compound | effect on cell growth (SK-BR-3 cells [2]; SK-BR-3, lapatinib/ATRA experiment) | effect on Caspase 3/7 activity (SK-BR-3 cells [3]; SK-BR-3, synergy analyzed with Bliss additivity model) | induction of Caspase 3/7 activity (SK-BR-3 cells [3]; SK-BR-3, 24 hours incubation, absence of ATRA) [fold] | tumor progression / tumor growth inhibition [4]
1 | 6 | ~40 |  | CC1=C(/C=C/C(C)=C/C=C/C(C)=C/C(=O)O)C(C)(C)CCC1 [ATRA, all-trans retinoic acid] | inhibited breast cancer cell growth | small effect |  | 
2 |  |  | 64 | CS(=O)(=O)CCNCc1ccc(-c2ccc3ncnc(Nc4ccc(OCc5cccc(F)c5)c(Cl)c4)c3c2)o1 [lapatinib] |  |  | ~2 | Markedly reduced tumor progression
